Assay results: PubChem BioAssay (NCI)
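Results reflect a 48-hour exposure of cells in 96-well plates to compound at five concentrations. GI50 = concentration required for 50% inhibition of growth. The concentration for full growth arrest is given as TGI.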

Key:
Assay in all cases: DTP human tumour cell line panel, 48 h
CAKI-1 renal = tested on: CAKI-1 renal
SF-539 CNS = tested on: SF-539 CNS
MDA-MB-231 breast = tested on: MDA-MB-231 breast
UACC-62 melanoma = tested on: UACC-62 melanoma
U251 CNS = tested on: U251 CNS
786-0 renal = tested on: 786-0 renal
SK-MEL-2 melanoma = tested on: SK-MEL-2 melanoma
HL-60(TB) leukemia = tested on: HL-60(TB) leukemia
SNB-19 CNS = tested on: SNB-19 CNS
CCRF-CEM leukemia = tested on: CCRF-CEM leukemia

Row | SMILES | GI50 (CAKI-1 renal) | TGI (CAKI-1 renal) | GI50 (SF-539 CNS) | TGI (SF-539 CNS) | GI50 (MDA-MB-231 breast) | TGI (MDA-MB-231 breast) | GI50 (UACC-62 melanoma) | TGI (UACC-62 melanoma) | GI50 (U251 CNS) | TGI (U251 CNS) | GI50 (786-0 renal) | TGI (786-0 renal) | GI50 (SK-MEL-2 melanoma) | TGI (SK-MEL-2 melanoma) | GI50 (HL-60(TB) leukemia) | TGI (HL-60(TB) leukemia) | GI50 (SNB-19 CNS) | TGI (SNB-19 CNS) | TGI (CCRF-CEM leukemia)
1 | O=C1/C(=C/c2ccc([N+](=O)[O-])cc2)COc2ccc(O)c(O)c21 | 1.27 µM | 2.54 µM | 1.7 µM | 3.33 µM | 1.33 µM | 2.81 µM | 1.57 µM | 3.35 µM | 0.785 µM | 3.55 µM | 1.35 µM | 3.59 µM | 1.87 µM | 4.37 µM | 0.896 µM | 6.45 µM | 1.56 µM | 3.1 µM | –
2 | CC(=O)OC1COC(n2c(=S)n(-c3ccc(C)cc3)c(=O)c3ccccc32)C(OC(C)=O)C1OC(C)=O (configuration not stated) | – | > 100 µM | – | > 100 µM | – | – | – | > 100 µM | – | > 100 µM | – | > 100 µM | – | > 100 µM | – | – | – | > 100 µM | –
3 | O=C(CSC(=S)N1CCCCC1)Nc1nc2c(s1)CCCC2 | – | – | – | > 100 µM | – | – | – | – | – | > 100 µM | – | > 100 µM | – | > 100 µM | – | 33.8 µM | – | > 100 µM | > 100 µM
4 | CC1=C(C#N)C23C(=O)c4ccccc4C(O)=C2C(=O)C=CC3(O)N1Cc1ccccc1 (configuration not stated) | 43.2 µM | > 100 µM | 48.2 µM | > 100 µM | 44.4 µM | > 100 µM | 47.4 µM | > 100 µM | 42 µM | > 100 µM | 44.5 µM | > 100 µM | 33 µM | > 100 µM | 37.8 µM | > 100 µM | 40.1 µM | > 100 µM | –
5 | Nc1ccc(C(=O)N/C(=C\c2ccc3c(c2)OCO3)c2nc3[nH]c(=S)[nH]c(=O)c3[nH]2)cc1 | – | > 100 µM | – | > 100 µM | – | – | – | > 100 µM | – | > 100 µM | – | > 100 µM | – | > 100 µM | – | – | – | > 100 µM | > 100 µM
6 | O=C1NC2(CCCCC2)C2CCCCC(O)C12 (configuration not stated) | – | > 100 µM | – | > 100 µM | – | – | – | > 100 µM | – | > 100 µM | – | > 100 µM | – | > 100 µM | – | > 100 µM | – | > 100 µM | > 100 µM
7 | COc1ccc2c(c1)C1(C=N2)CCN(C(C)=O)CC1 | – | > 100 µM | – | > 100 µM | – | – | – | > 100 µM | – | > 100 µM | – | > 100 µM | – | > 100 µM | – | > 100 µM | – | – | > 100 µM
8 | CSCCCN(CCCSC)CCCSC | – | – | – | > 100 µM | – | > 100 µM | – | > 100 µM | – | > 100 µM | – | > 100 µM | – | – | – | 50.7 µM | – | > 100 µM | > 100 µM
9 | CCOC(=O)c1ncn2c1[nH]c(=S)c1ccccc12 | – | > 100 µM | – | > 100 µM | – | – | – | > 100 µM | – | > 100 µM | – | > 100 µM | – | > 100 µM | – | > 100 µM | – | > 100 µM | > 100 µM
10 | O=[S@@]1Nc2ccc(Br)cc2S1 | – | > 100 µM | – | > 100 µM | – | – | – | > 100 µM | – | > 100 µM | – | > 100 µM | – | > 100 µM | – | 65.2 µM | – | 39.3 µM | > 100 µM
11 | COc1ccc(-c2cc(=O)c3ccc(O)cc3o2)c(OC)c1OC | – | > 100 µM | – | > 100 µM | – | – | – | > 100 µM | – | – | – | > 100 µM | – | > 100 µM | – | > 100 µM | – | > 100 µM | > 100 µM
12 | CC1CN1P1(N2CC2C)=NP(N2CC2C)(N2CC2C)=NP(N2CC2C)(N2CC2C)=N1 (configuration not stated) | – | > 50 µM | – | > 50 µM | – | – | – | – | – | > 50 µM | – | > 50 µM | – | – | – | > 50 µM | – | > 50 µM | > 50 µM
13 | CCOC(=O)COc1cccc2c1C(=O)CCO2 | – | > 100 µM | – | > 100 µM | – | – | – | > 100 µM | – | > 100 µM | – | > 100 µM | – | > 100 µM | – | > 100 µM | – | > 100 µM | > 100 µM
14 | COc1ccc2nc3cc(Cl)ccc3c(Sc3ccccc3[N+](=O)[O-])c2c1 | – | > 100 µM | – | > 100 µM | – | – | – | > 100 µM | – | > 100 µM | – | > 100 µM | – | > 100 µM | – | – | – | > 100 µM | > 100 µM
15 | CCNC1C2(CCCCC2)NC(=O)C12CCCCC2 (configuration not stated) | – | > 100 µM | – | > 100 µM | – | – | – | > 100 µM | – | > 100 µM | – | > 100 µM | – | > 100 µM | – | > 100 µM | – | – | > 100 µM
16 | CC(C)=CCCc1c(C)ccc2c1C(=O)C(=O)C(C(C)C)=C2 | – | 7.79 µM | – | 8.84 µM | – | – | – | – | – | > 22 µM | – | 7.07 µM | – | 8.14 µM | – | 5.03 µM | – | > 22 µM | 1.9 µM
17 | CSc1ccc(/C=C2\CN(C)C/C(=C\c3ccc(SC)cc3)C2=O)cc1 | – | > 100 µM | – | 78.9 µM | – | – | – | > 100 µM | – | 33.1 µM | – | > 100 µM | – | > 100 µM | – | > 100 µM | – | – | > 100 µM
18 | CCN(CC)CC(C(=O)Nc1c(C)cccc1C)/C(C)=N\NC(=O)C[N+](C)(C)C (configuration not stated) | – | > 100 µM | – | > 100 µM | – | – | – | > 100 µM | – | > 100 µM | – | > 100 µM | – | – | – | > 100 µM | – | > 100 µM | –
19 | COc1cccc(NC(=O)CC(=O)n2nc(C)c(N=Nc3ccccc3)c2C)c1 | – | > 100 µM | – | > 100 µM | – | – | – | > 100 µM | – | > 100 µM | – | > 100 µM | – | – | – | – | – | > 100 µM | –
20 | COc1ccc(-n2/c(=N/C(=S)N(C)C)ss/c2=N\C(=S)N(C)C)cc1 | – | > 100 µM | – | > 100 µM | – | – | – | 24.8 µM | – | > 100 µM | – | > 100 µM | – | > 100 µM | – | > 100 µM | – | 45.5 µM | –
21 | CC(=O)C(CN(C(C)C)C(C)C)C(c1ccccc1)c1c(O)c2ccccc2oc1=O (configuration not stated) | – | > 100 µM | – | > 100 µM | – | – | – | > 100 µM | – | > 100 µM | – | > 100 µM | – | > 100 µM | – | > 100 µM | – | > 100 µM | > 100 µM
22 | CC1=C(C(=O)Nc2ccccc2C)C(c2ccco2)C(C(=O)Nc2ccccc2C)=C(C)N1C | – | > 100 µM | – | > 100 µM | – | – | – | > 100 µM | – | > 100 µM | – | > 100 µM | – | > 100 µM | – | > 100 µM | – | > 100 µM | > 100 µM
23 | CCOC(=O)C1=C(C)CC2C(=O)OC(=O)C2C1(C)C (configuration not stated) | – | – | – | > 100 µM | – | – | – | – | – | > 100 µM | – | > 100 µM | – | > 100 µM | – | > 100 µM | – | > 100 µM | > 100 µM
24 | CC1(C)OC(=O)C(=Cc2ccc(O)cc2)C(=O)O1 | – | > 100 µM | – | > 100 µM | – | – | – | > 100 µM | – | > 100 µM | – | > 100 µM | – | > 100 µM | – | > 100 µM | – | > 100 µM | > 100 µM
